Toxic doses and inconclusive results are not listed. Rule as the data show it: active = T/C of 150% or more; inactive = T/C below 125%.
Tested on: L1210 leukemia ip in BDF1 mice, survival T/C
Assay: NCI In Vivo Anticancer Drug Screen. Data for tumor model L1210 Leukemia (intraperitoneal) in B6D2F1 (BDF1) mice
Conditions: endpoint: mean survival time, higher = longer survival
Method in brief: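 Value reflects the ratio of survival in compound-treated mice to survival in vehicle-treated controls, with both groups carrying the same transplanted tumor.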

[1] = dose: 25.0 mg/kg/injection, schedule: Q04DX002 (ip), vehicle: saline
[2] = dose: 50.0 mg/kg/injection, schedule: Q04DX002 (ip), vehicle: saline
[3] = dose: 100.0 mg/kg/injection, schedule: Q04DX002 (ip), vehicle: Klucel (hydroxypropylcellulose) (HPC)
[4] = dose: 200.0 mg/kg/injection, schedule: Q04DX002 (ip), vehicle: Klucel (hydroxypropylcellulose) (HPC)
[5] = dose: 100.0 mg/kg/injection, schedule: Q04DX003 (ip), vehicle: saline with Tween-80
[6] = dose: 200.0 mg/kg/injection, schedule: Q04DX003 (ip), vehicle: saline with Tween-80
[7] = dose: 400.0 mg/kg/injection, schedule: Q04DX003 (ip), vehicle: saline with Tween-80
[8] = dose: 100.0 mg/kg/injection, schedule: Q01DX009 (ip), vehicle: saline
[9] = dose: 100.0 mg/kg/injection, schedule: Q04DX003 (ip), vehicle: saline
[10] = dose: 200.0 mg/kg/injection, schedule: Q01DX009 (ip), vehicle: saline
[11] = dose: 200.0 mg/kg/injection, schedule: Q04DX003 (ip), vehicle: saline
[12] = dose: 400.0 mg/kg/injection, schedule: Q01DX009 (ip), vehicle: saline
[13] = dose: 400.0 mg/kg/injection, schedule: Q04DX003 (ip), vehicle: saline
[14] = dose: 100.0 mg/kg/injection, schedule: Q04DX002 (ip), vehicle: saline with Tween-80
[15] = dose: 200.0 mg/kg/injection, schedule: Q04DX002 (ip), vehicle: saline with Tween-80
[16] = dose: 100.0 mg/kg/injection, schedule: Q01DX009 (ip), vehicle: Klucel (hydroxypropylcellulose) (HPC)
[17] = dose: 100.0 mg/kg/injection, schedule: Q04DX003 (ip), vehicle: Klucel (hydroxypropylcellulose) (HPC)
[18] = dose: 200.0 mg/kg/injection, schedule: Q01DX009 (ip), vehicle: Klucel (hydroxypropylcellulose) (HPC)
[19] = dose: 200.0 mg/kg/injection, schedule: Q04DX003 (ip), vehicle: Klucel (hydroxypropylcellulose) (HPC)
[20] = dose: 400.0 mg/kg/injection, schedule: Q01DX009 (ip), vehicle: Klucel (hydroxypropylcellulose) (HPC)
[21] = dose: 400.0 mg/kg/injection, schedule: Q04DX003 (ip), vehicle: Klucel (hydroxypropylcellulose) (HPC)
[22] = dose: 100.0 mg/kg/injection, schedule: Q01DX009 (ip), vehicle: saline with Tween-80
[23] = dose: 200.0 mg/kg/injection, schedule: Q01DX009 (ip), vehicle: saline with Tween-80
[24] = dose: 400.0 mg/kg/injection, schedule: Q01DX009 (ip), vehicle: saline with Tween-80
[25] = dose: 400.0 mg/kg/injection, schedule: Q04DX002 (ip), vehicle: saline with Tween-80

Measured: T/C

CCC(C(=O)C(C)C(O)C(C)CCc1ccc(C)c(O)c1C(=O)O)C1OC(CC)(C2CCC(O)(CC)C(C)O2)CC1C (centres undefined)
inactive: dose: 6.25 mg/kg/injection, schedule: Q04DX002 (ip), vehicle: saline 100 % of control | dose: 12.5 mg/kg/injection, schedule: Q04DX002 (ip), vehicle: saline 92 % of control | [1] 92 % of control | [2] 103 % of control

CONS(=O)c1ccc(Cl)cc1 (centres undefined)
inactive: [3] 96 % of control | [4] 92 % of control | dose: 400.0 mg/kg/injection, schedule: Q04DX002 (ip), vehicle: Klucel (hydroxypropylcellulose) (HPC) 108 % of control

Cc1ccc(C(C)(Cl)/N=N\C(C)(Cl)c2ccc([N+](=O)[O-])cc2)cc1 (centres undefined)
inactive: [5] 90 % of control | [6] 96 % of control | [7] 98 % of control

COC1=CC23CCN(C)C(CCc4cc(OC)c(OC)c(OC)c42)C3=CC1=O (centres undefined)
inactive: [1] 114 % of control | [2] 108 % of control | dose: 100.0 mg/kg/injection, schedule: Q04DX002 (ip), vehicle: saline 111 % of control | dose: 200.0 mg/kg/injection, schedule: Q04DX002 (ip), vehicle: saline 105 % of control | dose: 400.0 mg/kg/injection, schedule: Q04DX002 (ip), vehicle: saline 103 % of control

Nc1ccc(S(=O)(=O)S(=O)(=O)c2ccc(N)cc2)cc1
inactive: [5] 93 % of control | [6] 86 % of control | [7] 91 % of control

CN(C)C(=O)c1cccc(N)c1
inactive: [8] 101 % of control | [9] 103 % of control | [10] 98 % of control | [11] 100 % of control | [12] 90 % of control | [13] 102 % of control

COc1ccc(C=NCCc2ccc(OC)c(OC)c2)cc1OC
inactive: [8] 89 % of control | [9] 102 % of control | [10] 98 % of control | [11] 97 % of control | [12] 97 % of control | [13] 105 % of control

c1csc([Si](c2cccs2)(c2cccs2)c2cccs2)c1
inactive: [14] 103 % of control | [15] 89 % of control

CNc1[nH]c(=S)ncc1C
inactive: dose: 100.0 mg/kg/injection, schedule: Q01DX Z (ip), vehicle: methylcellulose (MC) 100 % of control | dose: 200.0 mg/kg/injection, schedule: Q01DX Z (ip), vehicle: methylcellulose (MC) 99 % of control

CCc1ccc(NC(=O)Nc2cccc(Cl)c2)cc1
inactive: [16] 92 % of control | [17] 102 % of control | [18] 89 % of control | [19] 102 % of control | [20] 99 % of control | [21] 98 % of control

COC(=O)C(Cc1c[nH]c2ccccc12)N(C)C (centres undefined)
inactive: dose: 100.0 mg/kg/injection, schedule: Q01DX001 (ip), vehicle: other 101 % of control | dose: 200.0 mg/kg/injection, schedule: Q01DX001 (ip), vehicle: other 103 % of control | dose: 400.0 mg/kg/injection, schedule: Q01DX001 (ip), vehicle: other 98 % of control

ON=C(c1ccc(Cl)cc1)c1ccc(Cl)cc1
inactive: [22] 95 % of control | [23] 93 % of control | [24] 93 % of control

COc1ccc(Cl)cc1NC(=O)N1CCN(c2ccccc2)CC1
inactive: [16] 120 % of control | [9] 101 % of control | [18] 97 % of control | [11] 101 % of control | [20] 111 % of control | [13] 97 % of control

O=S(=O)(N=C1C=CC(=NS(=O)(=O)c2ccccc2)C=C1)c1ccccc1
inactive: dose: 100.0 mg/kg/injection, schedule: Q01DX009 (ip), vehicle: gum acacia 98 % of control | dose: 100.0 mg/kg/injection, schedule: Q04DX003 (ip), vehicle: gum acacia 98 % of control | dose: 200.0 mg/kg/injection, schedule: Q01DX009 (ip), vehicle: gum acacia 97 % of control | dose: 200.0 mg/kg/injection, schedule: Q04DX003 (ip), vehicle: gum acacia 98 % of control | dose: 400.0 mg/kg/injection, schedule: Q04DX003 (ip), vehicle: gum acacia 95 % of control

CC1N=C(c2ccc(N)cc2)OC1C (centres undefined)
inactive: dose: 100.0 mg/kg/injection, schedule: Q01DX001 (ip), vehicle: Klucel (hydroxypropylcellulose) (HPC) 102 % of control | dose: 200.0 mg/kg/injection, schedule: Q01DX001 (ip), vehicle: Klucel (hydroxypropylcellulose) (HPC) 98 % of control | dose: 400.0 mg/kg/injection, schedule: Q01DX001 (ip), vehicle: Klucel (hydroxypropylcellulose) (HPC) 100 % of control

O=C1Cc2ccccc2N1C(=O)c1ccccc1
inactive: dose: 50.0 mg/kg/injection, schedule: Q04DX002 (ip), vehicle: Klucel (hydroxypropylcellulose) (HPC) 97 % of control | [3] 101 % of control | [4] 90 % of control

O=C1C=C(OCc2ccccc2)C(=O)C(OCc2ccccc2)=C1
inactive: [17] 93 % of control | [19] 96 % of control | [21] 95 % of control

CC(=O)NC(CCSCc1c2ccccc2c(C)c2ccccc12)C(=O)O (centres undefined)
inactive: dose: 50.0 mg/kg/injection, schedule: Q01DX009 (ip), vehicle: saline with Tween-80 86 % of control | [22] 98 % of control | [5] 95 % of control | [6] 95 % of control

O=C(NCCCO)C1C(c2ccccc2)C1c1ccccc1 (centres undefined)
inactive: [14] 108 % of control | [15] 102 % of control | [25] 102 % of control

O=[As](O)(O)CCc1ccccc1
inactive: dose: 12.5 mg/kg/injection, schedule: Q04DX003 (ip), vehicle: Klucel (hydroxypropylcellulose) (HPC) 101 % of control | dose: 25.0 mg/kg/injection, schedule: Q04DX003 (ip), vehicle: Klucel (hydroxypropylcellulose) (HPC) 108 % of control

c1ccc(NC(Nc2ccccn2)c2ccncc2)nc1
inactive: [5] 104 % of control | [6] 111 % of control

Cc1ccc(C(=O)/C=C/c2cccc3ccccc23)cc1
inactive: [22] 102 % of control | [14] 97 % of control | [23] 96 % of control | [15] 97 % of control | [24] 96 % of control | [25] 94 % of control

CCOc1ccc(C=C(C#N)C#N)cc1OCC
inactive: dose: 100.0 mg/kg/injection, schedule: Q01DX001 (ip), vehicle: saline 105 % of control | dose: 200.0 mg/kg/injection, schedule: Q01DX001 (ip), vehicle: saline 102 % of control | dose: 400.0 mg/kg/injection, schedule: Q01DX001 (ip), vehicle: saline 90 % of control

Nc1cccc(CNc2ccc(C(=O)O)cc2)c1
inactive: dose: 100.0 mg/kg/injection, schedule: Q01DX001 (ip), vehicle: saline with Tween-80 113 % of control | dose: 200.0 mg/kg/injection, schedule: Q01DX001 (ip), vehicle: saline with Tween-80 103 % of control | dose: 400.0 mg/kg/injection, schedule: Q01DX001 (ip), vehicle: saline with Tween-80 98 % of control

From PubChem BioAssay AID248 (DTP/NCI, 2004)
